Earlier results, collected in patent publication US20170016004A1, “DDX5 AND ASSOCIATED NON-CODING RNAs AND MODULATION OF TH17 EFFECTOR FUNCTION” (priority 2015, published 2017).

System: ileal and colonic SMAD7
Conditions: oral

## mongersen
  treatment of Crohn's Disease: used successfully
